Structures can show the parent of a compound that is named as a salt. Where two headings read alike, the source gives them in different places.

The nature of data set [1]: Dissolution of vilazodone hydrochloride in acetone aqueous solution. Format: physicochemical. The conditions noted are these: 10 mg. Here is the method:
10 mg of vilazodone hydrochloride solid powder was put into a 4 ml EP tube. 1 ml of acetone aqueous solution of different concentrations was added to each tube separately, and the tubes were sonicated in a water bath for 30 minutes. The dissolution of the powder was observed; if the powder was dissolved quickly, a small amount of powder was continued to add to increase the concentration of the sample and was dissolved ultrasonically; finally, the solution samples were placed at room temperature for 24 hours to observe whether there was precipitation.

The conditions of data set [2]: cited from earlier work.
A short description of data set [3]: Dissolution of vilazodone hydrochloride in methanol aqueous solution. Conditions: 30 mg. The format is physicochemical. Here is the method:
30 mg of vilazodone hydrochloride solid powder was put into a 10 ml EP tube 3 ml of methanol aqueous solution of different concentrations was added to each tube separately, and the tubes were sonicated in a water bath for 30 minutes. The dissolution of the powders was observed; if the powder was dissolved quickly, a small amount of powder was continued to add to increase the concentration of the sample and was dissolved ultrasonically; finally, the solution samples were placed at room temperature for 24 hours to observe whether there was precipitation.

Data set [4] is described as follows: Dissolution of vilazodone in different organic solvents. Conditions: 10 mg/ml, sonicated 30 min, room temperature 24 h. The format is physicochemical. Here is the method:
10 mg of vilazodone hydrochloride solid powder was put into a 4 ml EP tube. 1 ml of dichloromethane, methanol, ethanol, acetone and ethyl acetate was added to each tube separately, and the tubes were sonicated in a water bath for 30 minutes. The dissolution of the powder was observed; after the samples were placed at room temperature for 24 h, the appearance of the samples was observed and whether there was precipitation was noted.

A short description of data set [5]: Dissolution of vilazodone hydrochloride in ethanol aqueous solution. The format is physicochemical. The conditions noted are these: 10 mg. The method, then:
10 mg of vilazodone hydrochloride solid powder was put into a 4 ml EP tube. 1 ml of ethanol aqueous solution of different concentrations was added to each tube separately, and the tubes were sonicated in a water bath for 30 minutes. The dissolution of the powder was observed; after the samples were placed at room temperature for 24 h, the appearance of the samples was observed and whether there was precipitation was noted.

In the case of `N#Cc1ccc2[nH]cc(CCCCN3CCN(c4ccc5oc(C(N)=O)cc5c4)CC3)c2c1` [vilazodone hydrochloride, 5-{4-[4-(5-cyano-3-indole)-butyl]-1-piperazinyl}-coumarone-2-carboxamide], the “Phenomenon (dissolution)” value in data set [1] (Acetone 0.1 ml + Water 0.9 ml) was “Insoluble, a lot of precipitation”; in data set [1] (Acetone 0.2 ml + Water 0.8 ml) it was “Insoluble, a lot of precipitation”; in data set [1] (Acetone 0.3 ml + Water 0.7 ml), “Insoluble, a lot of precipitation”; in data set [1] (Acetone 0.9 ml + Water 0.1 ml) it was “Insoluble, a lot of precipitation”; in data set [4] (Acetone), “Insoluble, a little of precipitation”; in data set [4] (Dichloromethane) it was “Insoluble, a lot of precipitation”. The “Phenomenon (dissolution)” value in data set [4] (Ethanol) is listed as “Insoluble, a little of precipitation”; in data set [4] (Ethyl acetate), “Insoluble, a lot of precipitation”; in data set [4] (Methanol), “Insoluble, a little of precipitation”; in data set [5] (Ethanol 0.1 ml + Water 0.9 ml) it was “Insoluble, a lot of precipitation”; in data set [5] (Ethanol 0.2 ml + Water 0.8 ml), “Insoluble, a lot of precipitation”; in data set [5] (Ethanol 0.3 ml + Water 0.7 ml) it was “Insoluble, a lot of precipitation”. The “Phenomenon (dissolution)” value in data set [5] (Ethanol 0.4 ml + Water 0.6 ml) is given as “Dissolved, precipitate after 1 day”; in data set [5] (Ethanol 0.6 ml + Water 0.4 ml) it was “Dissolved, precipitate after 1 day”; in data set [5] (Ethanol 0.8 ml + Water 0.2 ml), “Insoluble, a lot of precipitation”; in data set [5] (Ethanol 0.9 ml + Water 0.1 ml) it was “Insoluble, a lot of precipitation”. Moreover, the solubility entry is on record as “a certain solubility” in data set [2] (environment with pH 3.1); “poor solubility” in data set [2] (gastric juice (pH 1.2) and intestinal juice (pH 4.5 to 6.8)). In addition, the “Result (dissolution)” value in data set [3] (Methanol 0.3 ml + Water 2.7 ml) is recorded as “Insoluble, a lot of precipitation”; in data set [3] (Methanol 0.6 ml + Water 2.4 ml), “Insoluble, a lot of precipitation”; in data set [3] (Methanol 0.9 ml + Water 2.1 ml), “Insoluble, a lot of precipitation”; in data set [3] (Methanol 1.2 ml + Water 1.8 ml), “Insoluble, a lot of precipitation”.

The record behind these values is US20220071993A1, “A VILAZODONE SOLID DISPERSION AND PREPARATION METHOD THEREOF” (SUNSHINE LAKE PHARMA CO., LTD., priority 2018, published 2022).
